Measured values reported in patent US9187464B2, “TRPV4 antagonists” (GlaxoSmithKline Intellectual Property (No. 2) Limited, priority 2011, dated 2015).

Biological target: T1, human TRPV4 (Homo sapiens, UniProt Q9HBA0)
T1 construct: expressed in transfected cells; host or cells: HEK-293-MSR-II cells transduced with 1% BacMam virus
Assay: Ligand-gated assay (Fluo4 calcium, FLIPR; inhibition of agonist-induced activation)
Format: cell-based
Details: HEK-293-MSR-II cells transduced with BacMam human TRPV4; agonist at EC80
Method in brief: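 HEK-293-MSR-II cells BacMam-transduced with human TRPV4, loaded with 2 uM Fluo-4. Compound preincubated 10 min at room temperature in HBSS pH 7.4 plus 0.01% Chaps, then agonist added at its EC80. Inhibition of agonist-evoked calcium rise read on FLIPR; IC50 reported.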

T1 sequence (Q9HBA0 whole entry): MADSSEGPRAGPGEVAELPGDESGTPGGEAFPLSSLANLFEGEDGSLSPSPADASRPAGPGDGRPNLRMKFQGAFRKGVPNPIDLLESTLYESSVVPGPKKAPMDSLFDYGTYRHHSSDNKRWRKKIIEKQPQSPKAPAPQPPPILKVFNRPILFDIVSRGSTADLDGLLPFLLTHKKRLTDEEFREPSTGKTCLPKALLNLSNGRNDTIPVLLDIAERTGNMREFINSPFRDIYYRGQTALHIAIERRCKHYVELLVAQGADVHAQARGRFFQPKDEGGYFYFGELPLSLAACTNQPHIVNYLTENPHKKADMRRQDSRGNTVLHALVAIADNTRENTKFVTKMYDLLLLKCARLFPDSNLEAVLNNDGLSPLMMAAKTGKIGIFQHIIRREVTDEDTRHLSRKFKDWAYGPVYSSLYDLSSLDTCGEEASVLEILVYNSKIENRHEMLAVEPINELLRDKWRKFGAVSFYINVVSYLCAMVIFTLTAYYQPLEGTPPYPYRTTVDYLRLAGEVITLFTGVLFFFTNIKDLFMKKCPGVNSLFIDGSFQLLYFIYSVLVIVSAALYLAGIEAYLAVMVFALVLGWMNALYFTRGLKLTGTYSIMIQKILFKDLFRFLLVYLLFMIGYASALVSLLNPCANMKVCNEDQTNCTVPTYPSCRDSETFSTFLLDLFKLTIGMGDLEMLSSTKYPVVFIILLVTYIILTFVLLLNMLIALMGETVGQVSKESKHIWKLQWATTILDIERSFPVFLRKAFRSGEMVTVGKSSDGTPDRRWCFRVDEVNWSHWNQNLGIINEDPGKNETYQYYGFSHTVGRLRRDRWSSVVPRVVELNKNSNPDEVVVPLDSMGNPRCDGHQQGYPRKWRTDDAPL

SMILES | IC50 [nM]
CC1(CN2C[C@@]3(CCC[C@H](Cn4cnc5ccc(C#N)cc54)C3)OC2=O)CCN(c2ncccn2)C1 (stereo partly drawn) [Example 7, 1-[((5S,7S)-3-{[3-Methyl-1-(2-pyrimidinyl)-3-pyrrolidinyl]methyl}-2-oxo-1-oxa-3-azaspiro[4.5]dec-7-yl)methyl]-1H-benzimidazole-6-carbonitrile] | 50 to 500
N#Cc1ccc2ncn(C[C@H]3CCC[C@]4(C3)CN(Cc3cn(-c5ccc(Cl)cc5)nn3)C(=O)O4)c2c1 [Example 89] | 10 to 50
N#Cc1ccc2ncn(C[C@H]3CCC[C@]4(C3)CN(Cc3cn(-c5cc(F)cc(F)c5)nn3)C(=O)O4)c2c1 [Example 101, 1-[((5S,7S)-3-{[1-(3,5-difluorophenyl)-1H-1,2,3-triazol-4-yl]methyl}-2-oxo-1-oxa-3-azaspiro[4.5]dec-7-yl)methyl]-1H-benzimidazole-6-carbonitrile] | 10 to 50
N#Cc1ccc2ncn(C[C@H]3CCC[C@]4(C3)CN(Cc3cc(-c5ccccc5)no3)C(=O)O4)c2c1 [Example 68, 1-({(5S,7S)-2-oxo-3-[(3-phenyl-5-isoxazolyl)methyl]-1-oxa-3-azaspiro[4.5]dec-7-yl}methyl)-1H-benzimidazole-6-carbonitrile] | 10 to 50
N#Cc1ccc2ncn(C[C@H]3CCC[C@]4(C3)CN(Cc3csc(-c5ccccc5)n3)C(=O)O4)c2c1 [Example 63, 1-({(5S,7S)-2-oxo-3-[(2-phenyl-1,3-thiazol-4-yl)methyl]-1-oxa-3-azaspiro[4.5]dec-7-yl}methyl)-1H-benzimidazole-6-carbonitrile] | 10 to 50
COc1cccc(-n2cc(CN3C[C@@]4(CCC[C@H](Cn5cnc6ccc(C#N)cc65)C4)OC3=O)nn2)c1 [Example 95, 1-{[(5S,7S)-3-({1-[3-(methyloxy)phenyl]-1H-1,2,3-triazol-4-yl}methyl)-2-oxo-1-oxa-3-azaspiro[4.5]dec-7-yl]methyl}-1H-benzimidazole-6-carbonitrile] | 10 to 50
CC(C)(C)c1cc(N2C[C@@]3(CCC[C@](C)(Cn4cnc5ccc(C#N)cc54)C3)OC2=O)on1 [Example 1, 1-({(5S,7S)-3-[3-(1,1-Dimethylethyl)-5-isoxazolyl]-7-methyl-2-oxo-1-oxa-3-azaspiro[4.5]dec-7-yl}methyl)-1H-benzimidazole-6-carbonitrile] | 10 to 50
COc1cc(C)cnc1N1C[C@@]2(CCC[C@](C)(Cn3cnc4ccc(C#N)cc43)C2)OC1=O [Example 127, 1-(((5S,7S)-3-(3-methoxy-5-methylpyridin-2-yl)-7-methyl-2-oxo-1-oxa-3-azaspiro[4.5]decan-7-yl)methyl)-1H-benzo[d]imidazole-6-carbonitrile] | 10 to 50
CCOc1cc(C)c(N2C[C@@]3(CCC[C@H](Cn4cnc5ccc(C#N)cc54)C3)OC2=O)cn1 [Example 23, 1-(((5S,7S)-3-(6-Ethoxy-4-methylpyridin-3-yl)-2-oxo-1-oxa-3-azasbiro[4.5]decan-7-yl)methyl)-1H-benzo[d]imidazole-6-carbonitrile] | 10 to 50
Cc1cnc(N2C[C@@]3(CCC[C@](C)(Cn4cnc5ccc(C#N)cc54)C3)OC2=O)c(C)n1 [Example 130, 1-(((5S,7S)-3-(3,5-dimethylpyrazin-2-yl)-7-methyl-2-oxo-1-oxa-3-azaspiro[4.5]decan-7-yl)methyl)-1H-benzo[d]imidazole-6-carbonitrile] | 50 to 500
CC(C)(CO)c1cc(N2C[C@@]3(CCC[C@](C)(Cn4cnc5ccc(C#N)cc54)C3)OC2=O)on1 [Example 21, 1-(((5S,7S)-3-(3-(1-Hydroxy-2-methylpropan-2-yl)isoxazol-5-yl)-7-methyl-2-oxo-1-oxa-3-azaspiro[4.5]decan-7-yl)methyl)-1H-benzo[d]imidazole-6-carbonitrile] | 50 to 500
COc1cnc(N2C[C@@]3(CCC[C@](C)(Cn4cnc5ccc(C#N)cc54)C3)OC2=O)cn1 [Example 17, 1-(((7S)-3-(5-Methoxypyrazin-2-yl)-7-methyl-2-oxo-1-oxa-3-azaspiro[4.5]decan-7-yl)methyl)-1H-benzo[d]imidazole-6-carbonitrile] | 10 to 50
Cc1ccc(N2C[C@@]3(CCC[C@](C)(Cn4cnc5ccc(C#N)cc54)C3)OC2=O)nc1 [Example 29, 1-{[(5S,7S)-7-methyl-3-(5-methyl-2-pyridinyl)-2-oxo-1-oxa-3-azaspiro[4.5]dec-7-yl]methyl}-1H-benzimidazole-6-carbonitrile] | 10 to 50
N#Cc1cccc(-n2cc(CN3C[C@@]4(CCC[C@H](Cn5cnc6ccc(C#N)cc65)C4)OC3=O)nn2)c1 [Example 92, 1-[((5S,7S)-3-{[1-(3-cyanophenyl)-1H-1,2,3-triazol-4-yl]methyl}-2-oxo-1-oxa-3-azaspiro[4.5]dec-7-yl)methyl]-1H-benzimidazole-6-carbonitrile] | 10 to 50

The remaining lines, values ahead:

IC50 [nM] | SMILES
0.1 to 10 | N#Cc1ccc2ncn(C[C@H]3CCC[C@]4(C3)CN(Cc3cn(-c5ccc(C#N)c(C(F)(F)F)c5)nn3)C(=O)O4)c2c1 [Example 98, 1-{[(5S,7S)-3-({1-[4-cyano-3-(trifluoromethyl)phenyl]-1H-1,2,3-triazol-4-yl}methyl)-2-oxo-1-oxa-C azaspiro[4.5]dec-7-yl]methyl}-1H benzimidazole-6-carbonitrile]
10 to 50 | CCOc1ncc(N2C[C@@]3(CCC[C@](C)(Cn4cnc5ccc(C#N)cc54)C3)OC2=O)cn1 [Example 113, 1-(((5S,7S)-3-(2-ethoxypyrimidin-5-yl)-7-methyl-2-oxo-1-oxa-3-azaspiro[4.5]decan-7-yl)methyl)-1H-benzo[d]imidazole-6-carbonitrile]
10 to 50 | CCc1cc(N2C[C@@]3(CCC[C@](C)(Cn4cnc5ccc(C#N)cc54)C3)OC2=O)on1 [Example 33, 1-{[(5S,7S)-3-(3-ethyl-5-isoxazolyl)-7-methyl-2-oxo-1-oxa-3-azaspiro[4.5]dec-7-yl]methyl}-1H-benzimidazole-6-carbonitrile]
10 to 50 | C[C@]1(Cn2cnc3ccc(C#N)cc32)CCC[C@]2(CN(Cc3cn(-c4ccccc4)nn3)C(=O)O2)C1 [Example 105, 1-({(5R,7S)-7-methyl-2-oxo-3-[(1-phenyl-1H-1,2,3-triazol-4-yl)methyl]-1-oxa-3-azaspiro[4.5]dec-7-yl}methyl)-1H benzimidazole-6-carbonitrile]
0.1 to 10 | C[C@]1(Cn2cnc3ccc(C#N)cc32)CCC[C@@]2(CN(c3cc(C4CC4)no3)C(=O)O2)C1 [Example 34, 1-{[(5S,7S)-3-(3-cyclopropyl-5-isoxazolyl)-7-methyl-2-oxo-1-oxa-3-azaspiro[4.5]dec-7-yl]methyl}-1H-benzimidazole-6-carbonitrile]
0.1 to 10 | CC(C)(C)c1noc(N2C[C@@]3(CCC[C@](C)(Cn4cnc5ccc(C#N)cc54)C3)OC2=O)c1Br [Example 108, 1-({(5S,7S)-3-[4-bromo-3-(1,1-dimethylethyl)-5-isoxazolyl]-7-methyl-2-oxo-1-oxa-3-azaspiro[4.5]dec-7-yl}methyl)-1H-benzimidazole-6-carbonitrile]
0.1 to 10 | CCOC(C)c1noc(C(C)(C)CN2C[C@@]3(CCC[C@H](Cn4cnc5ccc(C#N)cc54)C3)OC2=O)n1 (stereo partly drawn) [Example 28, 1-{[(5S,7S)-3-(2-{3-[1-(Ethyloxy)ethyl]-1,2,4-oxadiazol-5-yl}-2-methylpropyl)-2-oxo-1-oxa-3-azaspiro[4.5]dec-7-yl]methyl}-1H-benzimidazole-6-carbonitrile]
0.1 to 10 | COc1cc(C)c(N2C[C@@]3(CCC[C@](C)(Cn4cnc5ccc(C#N)cc54)C3)OC2=O)cn1 [Example 15, 1-(((5S,7S)-3-(6-Methoxy-4-methylpyridin-3-yl)-7-methyl-2-oxo-1-oxa-3-azasbiro[4.5]decan-7-yl)methyl)-1H-benzo[d]imidazole-6-carbonitrile]
0.1 to 10 | C[C@]1(Cn2cnc3ccc(C#N)cc32)CCC[C@@]2(CN(c3ncc(Cl)cc3Cl)C(=O)O2)C1 [Example 112, 1-(((7S)-3-(3,5-dichloropyridin-2-yl)-7-methyl-2-oxo-1-oxa-3-azaspiro[4.5]decan-7-yl)methyl)-1H-benzo[d]imidazole-6-carbonitrile]
0.1 to 10 | N#Cc1ccc2ncn(C[C@H]3CCC[C@]4(C3)CN(Cc3cn(-c5cccc(Cl)c5)nn3)C(=O)O4)c2c1 [Example 90, 1-[((5S,7S)-3-{[1-(3-chlorophenyl)-1H-1,2,3-triazol-4-yl]methyl}-2-oxo-1-oxa-3-azaspiro[4.5]dec-7-yl)methyl]-1H-benzimidazole-6-carbonitrile]
0.1 to 10 | CC(C)(C)c1cc(N2C[C@@]3(CCC[C@](C)(Cn4cnc5ccc(C#N)cc54)C3)OC2=O)no1 [Example 3, 1-({(5S,7S)-3-[5-(1,1-Dimethylethyl)-3-isoxazolyl]-7-methyl-2-oxo-1-oxa-3-azaspiro[4.5]dec-7-yl}methyl)-1H-benzimidazole-6-carbonitrile]
0.1 to 10 | CCOc1ccc(N2C[C@@]3(CCC[C@](C)(Cn4cnc5ccc(C#N)cc54)C3)OC2=O)cn1 [Example 12, ′1-({(5S,7S)-3-[6-(Ethyloxy)-3-pyridinyl]-7-methyl-2-oxo-1-oxa-3-azaspiro[4.5]dec-7-yl}methyl)-1H-benzimidazole-6-carbonitrile]
0.1 to 10 | COc1ccc(N2C[C@@]3(CCC[C@](C)(Cn4cnc5ccc(C#N)cc54)C3)OC2=O)c(OC)n1 [Example 110, 1-({(5S,7S)-3-[2,6-bis(methyloxy)-3-pyridinyl]-7-methyl-2-oxo-1-oxa-3-azaspiro[4.5]dec-7-yl}methyl)-1H-benzimidazole-6-carbonitrile]
0.1 to 10 | CC(C)(CN1C[C@@]2(CCC[C@H](Cn3cnc4ccc(C#N)cc43)C2)OC1=O)c1nc(C(F)(F)F)no1 [Example 80, 1-[((5S,7S)-3-{2-methyl-2-[3-(trifluoromethyl)-1,2,4-oxadiazol-5-yl]propyl}-2-oxo-1-oxa-3-azaspiro[4.5]dec-7-yl)methyl]-1H-benzimidazole-6-carbonitrile]
